The results in this text go back to patent publication US11896581B2, “Compositions and methods for providing health benefits in an animal” (Société des Produits Nestlé S.A., priority 2020, dated 2024).

For this test, the system named is H4IIE cells. Kind of test: Cellular bioassay of hepatic glucose production (gluconeogenesis) induced by sodium pyruvate and lactate (SLP). In kind it is cell-based. The following applies: for glucose production relative to SLP condition (100%): 6 h incubation. Here is the method:
A cellular bioassay was established according to a method described by Okamoto et al. (Establishment and characterization of a novel method for evaluating gluconeogenesis using hepatic cell lines, H4IIE and HepG2, Archives of Biochemistry and Biophysics, Volume 491, Issues 1-2, November 2009, Pages 46-52; Takashi Okamoto, Naohide Kanemoto, Takashi Ban, Toshiki Sudo, Keisuke Nagano, Ichiro Niki.) (FIG. 1). Briefly, H4IIE cells pre-cultured at high density were seeded into a 12-well plate at a density of 5.714×10^5 cells/cm^2 and cultured for 24 h in EMEM supplemented with 10% FCS. […] The assay was started by switching the medium for KHH Buffer in the presence of gluconeogenesis-inducing substrates (1 mM sodium pyruvate and 10 mM lactate). Compounds were added at different concentrations and tested in duplicate. 10 mM of metformin was included as a positive control for inhibition of gluconeogenesis. The conditioned medium was collected after 6 h of incubation (stored at −80° C.). The cells remaining in the wells are washed once with PBS and then stored dry at −20° C.). The medium is used to assay glucose content using a fluorometric glucose assay kit. Frozen cells' proteins are first extracted and then quantified, to normalize the glucose results. Components were tested in at least two independent experiments performed at different cell passages. The selected compounds (Histidine and Ferulic acid) were tested individually to assess their inhibitory effect on hepatic glucose production (Table 1) using a range of concentrations determined from previous internal knowledge and literature. Additional experiments on individual compounds were conducted: the amino acid arginine and leucine to test the specificity of histidine effects against other amino acids. In addition, interactions and synergies between compounds were further explored using combined formulations, for which detailed information is provided in Table 1. For data analysis described herein, results are expressed as relative glucose produced in every treatment compared to the glucose produced using SLP treatment. […] Independent experiments were performed, using different cells passages in each condition. […] Sodium Pyruvate (1 mM) and Sodium Lactate (10 mM) was used to induce gluconeogenesis in H4IIE cells.

As to `N=C(N)NCCC[C@H](N)C(=O)O` [Arginine, arginine, reference compound], the “glucose production relative to SLP condition (100%)” value is on record as 81.44%±2.72 (single compound at 0.2 mM), 65.01%±11.52 (single compound at 2 mM) and 45.40%±3.57 (single compound at 20 mM).

With `COc1cc(/C=C/C(=O)O)ccc1O` [Ferulic acid, ferulic acid], the “inhibition on doubling the dose” value was found to be 30% (dose doubled from 0.5 μM to 1 μM) and 32% (dose doubled from 2 μM to 4 μM). Also, the “inhibiting effect of doubling the dose” value (dose doubled from 1 μM to 2 μM) is given as 40%. Moreover, the “glucose production relative to SLP condition (100%)” value is 85.67%±3.81 (single compound at 0.5 μM); 81.51%±11.70 (single compound at 0.8 μM); 61.38%±15.82 (single compound at 1 μM); 36.57%±6.02 (single compound at 2 μM); 25.08%±5.03 (single compound at 4 μM).

On to `CC(C)C[C@H](N)C(=O)O` [Leucine, leucine, reference compound], for which the “glucose production relative to SLP condition (100%)” value was 84.69%±1.05 (single compound at 0.2 mM), 75.37%±0.36 (single compound at 2 mM) and 83.76%±7.30 (single compound at 20 mM).

On to `N[C@@H](Cc1c[nH]cn1)C(=O)O` [histidine], for which the “inhibiting effect of doubling the dose” value came to 52% (dose doubled from 0.5 mM to 1 mM) and 25% (dose doubled from 1 mM to 2 mM). Moreover, the “glucose production relative to SLP condition (100%)” value was 93.7%±10.85 (single compound at 0.2 mM); 87.00%±17.2 (single compound at 0.5 mM); 52.67%±4.16 (single compound at 1 mM); 39.19%±7.44 (single compound at 2 mM); 8.39%±2.49 (single compound at 20 mM).

As for `CN(C)C(=N)N=C(N)N` [metformin, reference compound], the “glucose production relative to SLP condition (100%)” value (10 mM, positive control) was 9.71%±4.2.
